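Five compound concentrations were applied to cells in 96-well plates for 48 hours; endpoints were derived by simple linear interpolation of the resulting dose-response curve. Here, GI50 denotes the concentration required for 50% inhibition of growth.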 Activity calls are given as the source filed them. No stated cut-off is given here; in the data, active = GI50 up to about 1.1 µM and inactive = higher.
Columns and labels:
Test in all cases: inhibition of tumour cell growth, NCI panel, 48 h
HCC 2998 = system: HCC 2998
U-251 = system: U-251
T47D = system: T47D
KM12 = system: KM12
SK-MEL-5 = system: SK-MEL-5
HOP-62 = system: HOP-62
SK-MEL-28 = system: SK-MEL-28
HT-29 = system: HT-29
BT-549 = system: BT-549
LOX IMVI = system: LOX IMVI
786-0 = system: 786-0
SNB-75 = system: SNB-75
OVCAR-3 = system: OVCAR-3
SF-295 = system: SF-295
IGROV-1 = system: IGROV-1
OVCAR-4 = system: OVCAR-4
SF-268 = system: SF-268
SNB-19 = system: SNB-19
SN12C = system: SN12C
NCI/ADR-RES = system: NCI/ADR-RES
DU-145 = system: DU-145
HOP-92 = system: HOP-92
Malme-3M = system: Malme-3M
CAKI-1 = system: CAKI-1
HCT-116 = system: HCT-116
MDA-N = system: MDA-N
CCRF-CEM = system: CCRF-CEM
UO-31 = system: UO-31
PC-3 = system: PC-3
OVCAR-5 = system: OVCAR-5
SR = system: SR
Hs-578T = system: Hs-578T
MCF7 = system: MCF7
A549 = system: A549
A498 = system: A498
SW-620 = system: SW-620
NCI-H23 = system: NCI-H23
OVCAR-8 = system: OVCAR-8
K562 = system: K562
HCT-15 = system: HCT-15
SK-OV-3 = system: SK-OV-3
COLO 205 = system: COLO 205
UACC-257 = system: UACC-257
NCI-H460 = system: NCI-H460
NCI-H522 = system: NCI-H522
NCI-H226 = system: NCI-H226
SF-539 = system: SF-539
RXF 393 = system: RXF 393
RPMI-8226 = system: RPMI-8226
M14 = system: M14
TK-10 = system: TK-10
MDA-MB-231 = system: MDA-MB-231
MOLT-4 = system: MOLT-4
UACC-62 = system: UACC-62
ACHN = system: ACHN
EKVX = system: EKVX
HL-60 = system: HL-60
MDA-MB-435 = system: MDA-MB-435
SK-MEL-2 = system: SK-MEL-2

Structure (SMILES): c1ccc2cc(-c3cc(-c4cc(-c5ccc6ccccc6c5)on4)no3)ccc2c1
- GI50 (HCC 2998): 99.1 µM (inactive)
- GI50 (U-251): > 100 µM (inactive)
- GI50 (T47D): > 100 µM (inactive)
- GI50 (KM12): > 100 µM (inactive)
- GI50 (SK-MEL-5): > 100 µM (inactive)
- GI50 (HOP-62): > 100 µM (inactive)
- GI50 (SK-MEL-28): > 100 µM (inactive)
- GI50 (HT-29): > 100 µM (inactive)
- GI50 (BT-549): > 100 µM (inactive)
- GI50 (LOX IMVI): > 100 µM (inactive)
- GI50 (786-0): > 100 µM (inactive)
- GI50 (SNB-75): 64.7 µM (inactive)
- GI50 (OVCAR-3): > 100 µM (inactive)
- GI50 (SF-295): > 100 µM (inactive)
- GI50 (IGROV-1): > 100 µM (inactive)
- GI50 (OVCAR-4): > 100 µM (inactive)
- GI50 (SF-268): > 100 µM (inactive)
- GI50 (SNB-19): 15 µM (inactive)
- GI50 (SN12C): > 100 µM (inactive)
- GI50 (NCI/ADR-RES): > 100 µM (inactive)
- GI50 (DU-145): > 100 µM (inactive)
- GI50 (HOP-92): > 100 µM (inactive)
- GI50 (Malme-3M): > 100 µM (inactive)
- GI50 (CAKI-1): > 100 µM (inactive)
- GI50 (HCT-116): > 100 µM (inactive)
- GI50 (MDA-N): > 100 µM (inactive)
- GI50 (CCRF-CEM): 13.6 µM (inactive)
- GI50 (UO-31): 96.8 µM (inactive)
- GI50 (PC-3): > 100 µM (inactive)
- GI50 (OVCAR-5): > 100 µM (inactive)
- GI50 (SR): 55.7 µM (inactive)
- GI50 (Hs-578T): 53.6 µM (inactive)
- GI50 (MCF7): > 100 µM (inactive)
- GI50 (A549): > 100 µM (inactive)
- GI50 (A498): > 100 µM (inactive)
- GI50 (SW-620): > 100 µM (inactive)
- GI50 (NCI-H23): > 100 µM (inactive)
- GI50 (OVCAR-8): > 100 µM (inactive)
- GI50 (K562): > 100 µM (inactive)
- GI50 (HCT-15): > 100 µM
- GI50 (SK-OV-3): > 100 µM (inactive)
- GI50 (COLO 205): > 100 µM (inactive)
- GI50 (UACC-257): > 100 µM (inactive)
- GI50 (NCI-H460): > 100 µM (inactive)
- GI50 (NCI-H522): > 100 µM (inactive)
- GI50 (NCI-H226): > 100 µM (inactive)
- GI50 (SF-539): > 100 µM (inactive)
- GI50 (RXF 393): > 100 µM (inactive)
- GI50 (RPMI-8226): > 100 µM (inactive)
- GI50 (M14): > 100 µM (inactive)
- GI50 (TK-10): > 100 µM (inactive)
- GI50 (MDA-MB-231): > 100 µM (inactive)
- GI50 (MOLT-4): 88.9 µM (inactive)
- GI50 (UACC-62): > 100 µM (inactive)
- GI50 (ACHN): > 100 µM (inactive)
- GI50 (EKVX): 11.7 µM (inactive)
- GI50 (HL-60): > 100 µM (inactive)
- GI50 (MDA-MB-435): > 100 µM (inactive)
- GI50 (SK-MEL-2): > 100 µM (inactive)
